ChEMBL document CHEMBL1201862, “PubChem BioAssay data set” (2004)
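96-well plates; 48 h exposure; 5 concentrations. Endpoints by linear interpolation between flanking doses. Not reached: highest tested concentration assigned. GI50 marks 50% less growth.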 The source made the active and inactive calls. Cut-off read from the data, not from the text of the source: active = GI50 up to about 1.1 µM and inactive = higher.

Assays:
Test in all cases: DTP human tumour cell line panel, 48 h
[1] = tested on: BT-549
[2] = tested on: CCRF-CEM
[3] = tested on: COLO 205
[4] = tested on: HCT-15
[5] = tested on: HL-60
[6] = tested on: HOP-92
[7] = tested on: IGROV-1
[8] = tested on: K562
[9] = tested on: KM12
[10] = tested on: M14
[11] = tested on: NCI-H226
[12] = tested on: NCI-H23
[13] = tested on: NCI/ADR-RES
[14] = tested on: OVCAR-4
[15] = tested on: OVCAR-5
[16] = tested on: SK-MEL-28
[17] = tested on: SK-OV-3
[18] = tested on: SN12C
[19] = tested on: SR

Measured: GI50

C=C1CC2(CC(c3ccccc3Cl)OC(c3ccccc3Cl)C2)OC1=O (centres undefined)
active: [5] 1.05 µM
inactive: [1] 2.02 µM | [2] 1.96 µM | [3] 2.31 µM | [6] 1.87 µM | [7] 2.02 µM | [8] 2.26 µM | [9] 2.33 µM | [10] 1.71 µM | [11] 8.69 µM | [12] 3.83 µM | [13] 3.57 µM | [14] 3.9 µM | [15] 8.73 µM | [16] 1.87 µM | [17] 6.87 µM | [18] 2.37 µM | [19] 2.52 µM
2.56 µM: [4]

Nc1ccccc1N/C(=C\C(=O)C(Cl)(Cl)Cl)c1ccccc1
inactive: [1] 25.7 µM | [2] 30.2 µM | [3] 27.9 µM | [5] 20.5 µM | [6] 14.5 µM | [7] 5.6 µM | [8] 30.2 µM | [9] 33.6 µM | [10] 20.1 µM | [11] 24.2 µM | [12] 30.3 µM | [13] 29.2 µM | [14] 29.2 µM | [15] 15.7 µM | [16] 35.5 µM | [17] 88.5 µM | [18] 20.1 µM | [19] 28.2 µM
25.4 µM: [4]

COc1cc2c(cc1OC)C(=O)N(c1ccc(OCCN3CCCC3)cc1)C2=O
inactive: [1] > 100 µM | [2] > 100 µM | [3] > 100 µM | [5] > 100 µM | [6] > 100 µM | [7] > 100 µM | [8] > 100 µM | [9] > 100 µM | [10] > 100 µM | [11] > 100 µM | [12] > 100 µM | [13] > 100 µM | [14] > 100 µM | [15] > 100 µM | [16] > 100 µM | [17] > 100 µM | [18] > 100 µM | [19] > 100 µM
> 100 µM: [4]

Cc1nc(N)nc(S)c1CCC(=O)O
inactive: [1] > 100 µM | [2] > 100 µM | [3] > 100 µM | [5] > 100 µM | [6] > 100 µM | [7] > 100 µM | [8] > 100 µM | [9] > 100 µM | [10] > 100 µM | [11] > 100 µM | [12] > 100 µM | [13] > 100 µM | [14] > 100 µM | [15] > 100 µM | [16] > 100 µM | [17] > 100 µM | [18] > 100 µM | [19] > 100 µM
> 100 µM: [4]

CCSc1nnc(Sc2c3ccccc3nc3ccccc23)s1
3.37 µM: [4]
inactive: [1] 17.6 µM | [2] 2.64 µM | [3] 2.78 µM | [6] 11.7 µM | [7] 17.3 µM | [8] 3.8 µM | [9] 24.8 µM | [10] 11.5 µM | [11] 33.7 µM | [12] 20.2 µM | [13] 19.7 µM | [14] 16.9 µM | [15] 20 µM | [16] 17.5 µM | [17] > 78 µM | [18] 15.2 µM | [19] 3.19 µM
active: [5] 0.692 µM

COc1ccc(C(C)NNC(=O)c2ccncc2)cc1OC (centres undefined)
> 100 µM: [4]
inactive: [1] > 100 µM | [2] > 100 µM | [3] > 100 µM | [5] > 100 µM | [6] > 100 µM | [7] > 100 µM | [8] > 100 µM | [9] > 100 µM | [10] > 100 µM | [11] > 100 µM | [12] > 100 µM | [13] > 100 µM | [14] > 100 µM | [15] > 100 µM | [16] > 100 µM | [17] 26.4 µM | [18] > 100 µM | [19] > 100 µM
